For experiment [1], the target named is T1, hNPR-C (Homo sapiens, UniProt P17342).
T1 sequence (P17342 27-541): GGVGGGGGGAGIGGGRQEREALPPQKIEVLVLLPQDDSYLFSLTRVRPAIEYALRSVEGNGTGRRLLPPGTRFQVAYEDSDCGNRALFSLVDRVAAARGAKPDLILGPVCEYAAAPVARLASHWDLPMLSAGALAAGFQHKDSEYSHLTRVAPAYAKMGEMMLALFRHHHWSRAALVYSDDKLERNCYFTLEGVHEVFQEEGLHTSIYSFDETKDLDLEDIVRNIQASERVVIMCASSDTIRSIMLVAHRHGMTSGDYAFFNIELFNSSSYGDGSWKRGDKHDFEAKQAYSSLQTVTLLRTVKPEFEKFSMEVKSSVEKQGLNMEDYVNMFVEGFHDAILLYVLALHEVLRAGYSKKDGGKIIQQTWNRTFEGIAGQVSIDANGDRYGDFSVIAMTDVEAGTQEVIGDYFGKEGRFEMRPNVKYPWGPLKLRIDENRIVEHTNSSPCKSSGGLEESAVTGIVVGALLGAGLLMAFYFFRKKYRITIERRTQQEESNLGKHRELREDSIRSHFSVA
Put plainly: Binding affinity for clearance receptor hNPR-C. The note with it: for IC50: Table I, read-out: Binding Affinity IC50 (pM) hNPR-C. The source says:
For assay systems to measure binding of hANF and the compounds of this invention to hNPR-C see: Schank, D. B., et al., Biochem. Biophys. Res. Comm. 127:433-442 (1985); Scarborough, R. M., J. Biol. Chem. 261:12960-12964 and WO 90/01940.

Experiment [2] has as its target T2, hNPR-A (Homo sapiens, UniProt P16066).
T2 sequence (P16066 33-1061): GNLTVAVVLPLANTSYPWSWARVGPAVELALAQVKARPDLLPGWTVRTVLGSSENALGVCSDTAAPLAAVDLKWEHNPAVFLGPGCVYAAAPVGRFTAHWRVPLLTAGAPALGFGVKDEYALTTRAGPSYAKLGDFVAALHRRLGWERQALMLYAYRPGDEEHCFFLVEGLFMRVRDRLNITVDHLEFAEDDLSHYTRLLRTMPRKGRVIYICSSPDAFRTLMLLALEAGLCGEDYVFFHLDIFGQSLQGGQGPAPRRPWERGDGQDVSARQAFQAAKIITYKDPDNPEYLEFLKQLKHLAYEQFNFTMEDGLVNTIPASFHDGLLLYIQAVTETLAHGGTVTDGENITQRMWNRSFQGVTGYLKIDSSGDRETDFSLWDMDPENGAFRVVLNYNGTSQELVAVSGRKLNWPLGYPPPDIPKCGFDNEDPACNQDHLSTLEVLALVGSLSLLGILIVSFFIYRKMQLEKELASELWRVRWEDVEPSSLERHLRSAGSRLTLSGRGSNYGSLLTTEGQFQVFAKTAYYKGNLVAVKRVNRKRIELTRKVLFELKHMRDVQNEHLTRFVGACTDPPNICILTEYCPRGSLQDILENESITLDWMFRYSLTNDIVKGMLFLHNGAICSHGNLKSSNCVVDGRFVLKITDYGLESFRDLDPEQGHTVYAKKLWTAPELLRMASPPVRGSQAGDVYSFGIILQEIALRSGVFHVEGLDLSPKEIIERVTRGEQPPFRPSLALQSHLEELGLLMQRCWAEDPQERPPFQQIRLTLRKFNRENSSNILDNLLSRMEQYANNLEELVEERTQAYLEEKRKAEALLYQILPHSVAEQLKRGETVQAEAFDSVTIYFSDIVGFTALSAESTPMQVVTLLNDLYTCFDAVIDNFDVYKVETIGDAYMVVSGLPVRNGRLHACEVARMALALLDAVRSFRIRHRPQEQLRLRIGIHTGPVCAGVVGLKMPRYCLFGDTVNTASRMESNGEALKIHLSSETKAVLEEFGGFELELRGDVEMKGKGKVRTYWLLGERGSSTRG
Put plainly: Binding affinity for hNPR-A (competitive displacement of I^125 labeled wild-type ANF). The note with it: Table I; read-out: Binding Affinity IC50 (pM) hNPR-A.

pIC50: −log10 of the molar value. Read-outs that look alike come from different tables or passages of the source. Bridge positions count the residues as written; N and C are the ends. Square brackets hold non-standard residues; d marks the D form. Peptide text beside a SMILES is read from it. hCys = N[C@@H](CCS)C(=O)O

As usually defined, the IC50 is the concentration needed to halve the response being measured. By pIC50 is commonly meant the negative decadic logarithm of the IC50, by convention in mol/L.

As for `CC[C@H](C)[C@@H]1NC(=O)[C@H](CCCNC(=N)N)NC(=O)[C@H](CC(=O)O)NC(=O)[C@H]([C@@H](C)CC)NC(=O)[C@H](CCCNC(=N)N)NC(=O)CNC(=O)CNC(=O)[C@H](Cc2ccccc2)NC(=O)[C@@H](NC(=O)[C@H](CO)NC(=O)[C@H](CO)NC(=O)[C@H](CCCNC(=N)N)NC(=O)[C@H](CCCNC(=N)N)NC(=O)[C@H](CC(C)C)NC(=O)[C@@H](N)CO)CSSC[C@@H](C(=O)N[C@@H](CC(N)=O)C(=O)N[C@@H](CO)C(=O)N[C@@H](Cc2ccccc2)C(=O)N[C@@H](CCCNC(=N)N)C(=O)N[C@@H](Cc2ccc(O)cc2)C(=O)O)NC(=O)CNC(=O)[C@H](CC(C)C)NC(=O)CNC(=O)[C@H](CO)NC(=O)[C@H](CCC(N)=O)NC(=O)[C@H](C)NC(=O)[C@H](CCCNC(=N)N)NC1=O` [ANF24], the half-maximal inhibitory concentration (IC50) in experiment [1] was found to be 5640 pM. Consider `CC[C@H](C)[C@@H]1NC(=O)[C@H](CO)NC(=O)[C@H](CC(=O)O)NC(=O)[C@H]([C@@H](C)CC)NC(=O)[C@H](CCCNC(=N)N)NC(=O)CNC(=O)CNC(=O)[C@H](Cc2ccccc2)NC(=O)[C@@H](NC(=O)[C@H](CO)NC(=O)[C@H](CO)NC(=O)[C@H](CCCNC(=N)N)NC(=O)[C@H](CCCNC(=N)N)NC(=O)[C@H](CC(C)C)NC(=O)[C@@H](N)CO)CSSC[C@@H](C(=O)N[C@@H](CC(N)=O)C(=O)N[C@@H](CO)C(=O)N[C@@H](Cc2ccccc2)C(=O)N[C@@H](CCCNC(=N)N)C(=O)N[C@@H](Cc2ccc(O)cc2)C(=O)O)NC(=O)CNC(=O)[C@H](CC(C)C)NC(=O)CNC(=O)[C@H](CO)NC(=O)[C@H](CCC(N)=O)NC(=O)[C@H](C)NC(=O)[C@H](CCCNC(=N)N)NC1=O` [ANF25] (H-SLRRSSCFGGRIDSIRAQSGLGCNSFRY-OH; disulfide 7-23), for which the IC50 in experiment [1] was 3310 pM; in experiment [2], 56 pM. As for `CC[C@H](C)[C@@H]1NC(=O)[C@H](CCCNC(=N)N)NC(=O)[C@H](CC(=O)O)NC(=O)[C@H]([C@@H](C)CC)NC(=O)[C@H](CO)NC(=O)CNC(=O)[C@H]([C@@H](C)O)NC(=O)[C@H](Cc2ccccc2)NC(=O)[C@@H](NC(=O)[C@H](CO)NC(=O)[C@H](CO)NC(=O)[C@H](CCCNC(=N)N)NC(=O)[C@H](CCCNC(=N)N)NC(=O)[C@H](CC(C)C)NC(=O)[C@@H](N)CO)CSSC[C@@H](C(=O)N[C@@H](CC(N)=O)C(=O)N[C@@H](CO)C(=O)N[C@@H](Cc2ccccc2)C(=O)N[C@@H](CCCNC(=N)N)C(=O)N[C@@H](Cc2ccc(O)cc2)C(=O)O)NC(=O)CNC(=O)[C@H](CC(C)C)NC(=O)CNC(=O)[C@H](CO)NC(=O)[C@H](CCC(N)=O)NC(=O)[C@H](C)NC(=O)[C@H](CCCNC(=N)N)NC1=O` [ANF27], the IC50 in experiment [1] is 1e+06 pM. For the molecule `CC[C@H](C)[C@@H]1NC(=O)[C@H](CCCNC(=N)N)NC(=O)[C@H](CC(=O)O)NC(=O)[C@H]([C@@H](C)CC)NC(=O)[C@H](CO)NC(=O)CNC(=O)[C@H]([C@@H](C)O)NC(=O)[C@H](Cc2ccccc2)NC(=O)[C@@H](NC(=O)[C@H](CO)NC(=O)[C@H](CO)NC(=O)[C@H](CCCNC(=N)N)NC(=O)[C@H](CCCNC(=N)N)NC(=O)[C@H](CC(C)C)NC(=O)[C@@H](N)CO)CSSC[C@@H](C(=O)N[C@@H](CC(N)=O)C(=O)N[C@@H](CO)C(=O)N[C@@H](Cc2ccccc2)C(=O)N[C@@H](CCCNC(=N)N)C(=O)N[C@@H](Cc2ccc(O)cc2)C(=O)O)NC(=O)CNC(=O)[C@H](CC(C)C)NC(=O)CNC(=O)[C@H](CO)NC(=O)[C@@H]2CCCN2C(=O)[C@H](C)NC(=O)[C@H](CCCNC(=N)N)NC1=O` [ANF31] (H-SLRRSSCFTGSIDRIRAPSGLGCNSFRY-OH; disulfide 7-23), the IC50 is 3.21e+06 pM in experiment [1] and 52 pM in experiment [2]. In the case of `CC[C@H](C)[C@@H]1NC(=O)[C@H](CCCNC(=N)N)NC(=O)[C@H](CC(=O)O)NC(=O)[C@H](CCSC)NC(=O)[C@H](CO)NC(=O)CNC(=O)[C@H]([C@@H](C)O)NC(=O)[C@H](Cc2ccccc2)NC(=O)[C@@H](NC(=O)[C@H](CO)NC(=O)[C@H](CO)NC(=O)[C@H](CCCNC(=N)N)NC(=O)[C@H](CCCNC(=N)N)NC(=O)[C@H](CC(C)C)NC(=O)[C@@H](N)CO)CSSC[C@@H](C(=O)N[C@@H](CC(N)=O)C(=O)N[C@@H](CO)C(=O)N[C@@H](Cc2ccccc2)C(=O)N[C@@H](CCCNC(=N)N)C(=O)N[C@@H](Cc2ccc(O)cc2)C(=O)O)NC(=O)CNC(=O)[C@H](CC(C)C)NC(=O)CNC(=O)[C@H](CO)NC(=O)[C@H](CCC(N)=O)NC(=O)[C@H](C)NC(=O)CNC1=O` [ANF50] (H-SLRRSSCFTGSMDRIGAQSGLGCNSFRY-OH; disulfide 7-23), the 50% inhibitory concentration (IC50) in experiment [1] worked out at 251000 pM; in experiment [2], 570 pM. The matching figures for `CC[C@H](C)[C@@H]1NC(=O)[C@H](CCCNC(=N)N)NC(=O)[C@H](CC(=O)O)NC(=O)[C@H](CCSC)NC(=O)[C@@H]2CCCN2C(=O)[C@H](CCCNC(=N)N)NC(=O)[C@H](CCC(=O)O)NC(=O)[C@H](Cc2ccccc2)NC(=O)[C@@H](NC(=O)[C@H](CO)NC(=O)[C@H](CO)NC(=O)[C@H](CCCNC(=N)N)NC(=O)[C@H](CCCNC(=N)N)NC(=O)[C@H](CC(C)C)NC(=O)[C@@H](N)CO)CSSC[C@@H](C(=O)N[C@@H](CC(N)=O)C(=O)N[C@@H](CO)C(=O)N[C@@H](Cc2ccccc2)C(=O)N[C@@H](CCCNC(=N)N)C(=O)N[C@@H](Cc2ccc(O)cc2)C(=O)O)NC(=O)CNC(=O)[C@H](CC(C)C)NC(=O)CNC(=O)[C@H](CO)NC(=O)[C@H](CCC(N)=O)NC(=O)[C@H](C)NC(=O)CNC1=O` [ANF51] (H-SLRRSSCFERPMDRIGAQSGLGCNSFRY-OH; disulfide 7-23): 32200 pM and 4550 pM. On to `CC[C@H](C)[C@@H]1NC(=O)[C@H](CO)NC(=O)[C@H](CC(=O)O)NC(=O)[C@H](CC(C)C)NC(=O)[C@H](CO)NC(=O)CNC(=O)[C@H]([C@@H](C)O)NC(=O)[C@H](Cc2ccccc2)NC(=O)[C@@H](NC(=O)[C@H](CO)NC(=O)[C@H](CO)NC(=O)[C@H](CCCNC(=N)N)NC(=O)[C@H](CC(=O)O)NC(=O)[C@H](CC(C)C)NC(=O)[C@@H](N)CO)CSSC[C@@H]2NC(=O)CNC(=O)[C@H](CC(C)C)NC(=O)CNC(=O)[C@H](CO)NC(=O)[C@H](CCSSCC[C@@H](C(=O)O)NC(=O)[C@H](CCCNC(=N)N)NC(=O)[C@H](Cc3ccccc3)NC(=O)[C@H](CO)NC(=O)[C@H](CC(N)=O)NC2=O)NC(=O)[C@H](C)NC(=O)[C@H](CCCNC(=N)N)NC1=O` [ANF70] (H-SLDRSSCFTGSLDSIRA[hCys]SGLGCNSFR[hCys]-OH; disulfide 7-23, 18-28), for which the half-maximal inhibitory concentration (IC50) in experiment [2] came out at 3300 pM. In the case of `CC[C@H](C)[C@@H]1NC(=O)[C@H](CCCNC(=N)N)NC(=O)[C@H](CC(=O)O)NC(=O)[C@H]([C@@H](C)CC)NC(=O)[C@H](CO)NC(=O)CNC(=O)[C@@H](C)NC(=O)[C@H](Cc2ccccc2)NC(=O)[C@@H](NC(=O)[C@H](CO)NC(=O)[C@H](CO)NC(=O)[C@H](CCCNC(=N)N)NC(=O)[C@H](CCCNC(=N)N)NC(=O)[C@H](CC(C)C)NC(=O)[C@@H](N)CO)CSSC[C@@H](C(=O)N[C@@H](CC(N)=O)C(=O)N[C@@H](CO)C(=O)N[C@@H](Cc2ccccc2)C(=O)N[C@@H](CCCNC(=N)N)C(=O)N[C@@H](Cc2ccc(O)cc2)C(=O)O)NC(=O)CNC(=O)[C@H](CC(C)C)NC(=O)CNC(=O)[C@H](CO)NC(=O)[C@H](CCC(N)=O)NC(=O)[C@H](C)NC(=O)[C@H](CCCNC(=N)N)NC1=O` [ANF78], in experiment [1], the pIC50 was 8.06.

Values taken from patent US5665704A, “Receptor specific atrial natriuretic peptides” (Genentech, Inc., priority 1995, dated 1997).
